Measurements: PMC6166228 (ACS Omega, 2018)

How the values were obtained:
[1] = no species and reference not given; cited from earlier work
human AT1 receptor = target: T1, human AT1 receptor (Homo sapiens, UniProt P30556); assay type: binding
T1 sequence (P30556 1-359): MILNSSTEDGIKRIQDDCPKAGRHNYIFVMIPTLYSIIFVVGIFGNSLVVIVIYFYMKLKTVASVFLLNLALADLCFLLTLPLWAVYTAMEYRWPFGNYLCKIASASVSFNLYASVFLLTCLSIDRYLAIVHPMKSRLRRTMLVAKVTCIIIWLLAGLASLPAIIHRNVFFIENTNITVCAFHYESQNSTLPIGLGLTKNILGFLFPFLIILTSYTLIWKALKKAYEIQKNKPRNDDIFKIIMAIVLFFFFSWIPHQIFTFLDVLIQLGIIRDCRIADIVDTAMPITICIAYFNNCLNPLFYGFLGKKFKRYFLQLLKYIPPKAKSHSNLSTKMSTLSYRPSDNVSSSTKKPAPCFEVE

| Ki (human AT1 receptor) [nM] | SMILES | average half-life [1] |
| --- | --- | --- |
| – | CCCCC(=O)N(Cc1ccc(-c2ccccc2-c2nnn[nH]2)cc1)[C@H](C(=O)O)C(C)C [valsartan] | around 6 h |
| 14.6 | CC(C)[C@@H](C(=O)O)N(Cc1ccc(-c2ccccc2-c2nnn[nH]2)cc1)C(=O)CCCCF [FV45, (S)-2-(N-((2′-(1H-Tetrazol-5-yl)-[1,1′-biphenyl]-4-yl)methyl)-5-fluoropentanamido)-3-methylbutanoic Acid] | – |
